Counter-ions that a name gives are not always drawn.
The molecules below were run against human CXCR3-A receptor (Homo sapiens (Human), UniProt P49682) (assay: 125I-CXCL10 competition radioligand binding assay). Details: displacement of 125I-CXCL10 from membranes of CHO cells expressing human recombinant CXCR3-A.
Sequence of human CXCR3-A receptor (P49682 whole entry): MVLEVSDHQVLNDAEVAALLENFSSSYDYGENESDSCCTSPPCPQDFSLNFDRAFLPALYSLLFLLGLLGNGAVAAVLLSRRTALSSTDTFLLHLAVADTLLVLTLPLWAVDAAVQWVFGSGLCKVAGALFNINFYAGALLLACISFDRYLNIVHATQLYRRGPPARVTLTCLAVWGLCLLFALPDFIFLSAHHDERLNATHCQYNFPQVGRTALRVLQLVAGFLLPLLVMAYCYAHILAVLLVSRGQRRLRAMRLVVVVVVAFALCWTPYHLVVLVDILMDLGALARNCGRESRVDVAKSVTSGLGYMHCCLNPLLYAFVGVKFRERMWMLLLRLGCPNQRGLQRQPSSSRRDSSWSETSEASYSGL
Outline: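 Membranes from a recombinant cell line expressing human CXCR3-A (10-20 μg protein) were incubated with 125I-CXCL10 and test compound for 60 min at 25° C, then filtered onto PEI-soaked GF/B filters and gamma-counted. IC50 and Hill slope came from four-parameter nonlinear fitting of competition curves.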
`Cc1cc(CN([C@H]2C[C@@H](C(=O)O)C2)[C@H](C)c2ccc(Cl)cc2)ccc1OCCn1c(=O)ccn(C)c1=O` [Example 136, cis-3-([(R)-1-(4-Chloro-phenyl)-ethyl]-{3-methyl-4-[2-(3-methyl-2,6-dioxo-3,6-dihydro-2H-pyrimidin-1-yl)-ethoxy]-benzyl}-amino)-cyclobutanecarboxylic acid] was tested, and the IC50 was 347 nM.
`COc1cc(CN(C(C)c2ccc(Cl)c(Cl)c2)[C@H]2C[C@@H](C(=O)O)C2)ccc1OCCN1C(=O)CCC1=O` (stereo partly drawn) [Example 137, cis-3-([1-(3,4-Dichloro-phenyl)-ethyl]-{4-[2-(2,5-dioxo-pyrrolidin-1-yl)-ethoxy]-3-methoxy-benzyl}-amino)-cyclobutanecarboxylic acid] was tested, and the IC50 was 104 nM.
Work on `Cc1cc(CN(C(C)c2ccc(Cl)c(Cl)c2)[C@H]2C[C@@H](C(=O)O)C2)ccc1OCCN1C(=O)CCC1=O` (stereo partly drawn) [Example 138, cis-3-([1-(3,4-Dichloro-phenyl)-ethyl]-{4-[2-(2,5-dioxo-pyrrolidin-1-yl)-ethoxy]-3-methyl-benzyl}-amino)-cyclobutanecarboxylic acid] yielded an IC50 of 670 nM.
With `CCc1cc(CN(C(C)c2ccc(Cl)c(Cl)c2)[C@H]2C[C@@H](C(=O)O)C2)ccc1OCCN1C(=O)CCC1=O` (stereo partly drawn) [Example 139, cis-3-([1-(3,4-Dichloro-phenyl)-ethyl]-{4-[2-(2,5-dioxo-pyrrolidin-1-yl)-ethoxy]-3-ethyl-benzyl}-amino)-cyclobutanecarboxylic acid] the IC50 was 1200 nM.
Work on `CCc1cc(CN(C(C)c2ccc(Cl)c(F)c2)[C@H]2C[C@@H](C(=O)O)C2)ccc1OCCN1C(=O)CCC1=O` (stereo partly drawn) [Example 140, cis-3-([1-(4-Chloro-3-fluoro-phenyl)-ethyl]-{4-[2-(2,5-dioxo-pyrrolidin-1-yl)-ethoxy]-3-ethyl-benzyl}-amino)-cyclobutanecarboxylic acid] yielded an IC50 of 260 nM.
Molecule `CCC(c1ccc(Cl)c(Cl)c1)N(Cc1ccc(OCCN2C(=O)CCC2=O)c(OC)c1)[C@H]1C[C@@H](C(=O)O)C1` (stereo partly drawn) [Example 141, cis-3-([1-(3,4-Dichloro-phenyl)-propyl]-{4-[2-(2,5-dioxo-pyrrolidin-1-yl)-ethoxy]-3-methoxy-benzyl}-amino)-cyclobutanecarboxylic acid] has an IC50 of 200 nM.
`COc1cc(CN(C(C)c2ccc(Cl)c(F)c2)[C@H]2C[C@@H](C(=O)O)C2)ccc1OCCN1C(=O)CCC1=O` (stereo partly drawn) [Example 142, cis-3-([1-(4-Chloro-3-fluoro-phenyl)-ethyl]-{4-[2-(2,5-dioxo-pyrrolidin-1-yl)-ethoxy]-3-methoxy-benzyl}-amino)-cyclobutanecarboxylic acid] showed an IC50 of 120 nM.
`Cc1cc(CN([C@H]2C[C@@H](C(=O)O)C2)[C@H](C)c2ccc(Cl)cc2)ccc1CCCN1C(=O)CCC1=O` [Example 143, cis-3-([(R)-1-(4-Chloro-phenyl)-ethyl]-{4-[3-(2,5-dioxo-pyrrolidin-1-yl)-propyl]-3-methyl-benzyl}-amino)-cyclobutanecarboxylic acid] gave an IC50 of 3000 nM.
In the case of `COc1cc(CN(C[C@H]2CC[C@H](C(=O)O)CC2)C(C)c2ccc3c(c2)CCC3)ccc1OCCN1C(=O)CCC1=O` (stereo partly drawn) [Example 144, trans-4-{[{4-[2-(2,5-Dioxo-pyrrolidin-1-yl)-ethoxy]-3-methoxy-benzyl}-(1-indan-5-yl-ethyl)-amino]-methyl}-cyclohexanecarboxylic acid], the IC50 is reported as 167 nM.
Molecule `COc1cc(CN(C[C@H]2CC[C@H](C(=O)O)CC2)C(C)c2ccc3c(c2)CCC3)ccc1OCCN1C(=O)CN(C)C1=O` (stereo partly drawn) [Example 145, trans-4-[((1-Indan-5-yl-ethyl)-{3-methoxy-4-[2-(3-methyl-2,5-dioxo-imidazolidin-1-yl)-ethoxy]-benzyl}-amino)-methyl]-cyclohexanecarboxylic acid] has an IC50 of 146 nM.
`COc1cc(CN(C[C@H]2CC[C@H](C(=O)O)CC2)[C@H]2CCc3cc(Cl)ccc32)ccc1OCCN1C(=O)C2CC2C1=O` (stereo partly drawn) [Example 146, -4-[(((S)-5-Chloro-indan-1-yl)-{4-[2-(2,4-dioxo-3-aza-bicyclo[3.1.0]hex-3-yl)-ethoxy]-3-methoxy-benzyl}-amino)-methyl]-cyclohexanecarboxylic acid] showed an IC50 of 254 nM.
`COc1cc(CN(C[C@H]2CC[C@H](C(=O)O)CC2)[C@H]2CCc3cc(Cl)ccc32)ccc1OCCN1C(=O)CC2(CCCC2)CC1=O` [Example 147, 4-[(((S)-5-Chloro-indan-1-yl)-{4-[2-(7,9-dioxo-8-aza-spiro[4.5]dec-8-yl)-ethoxy]-3-methoxy-benzyl}-amino)-methyl]-cyclohexanecarboxylic acid] gave an IC50 of 7000 nM.
`COc1cc(CN(C[C@H]2CC[C@H](C(=O)O)CC2)[C@H]2CCc3c2ccc(Cl)c3F)ccc1OCCN1C(=O)CCC1=O` [Example 148, trans-4-[(((S)-5-Chloro-4-fluoro-indan-1-yl)-{4-[2-(2,5-dioxo-pyrrolidin-1-yl)-ethoxy]-3-methoxy-benzyl}-amino)-methyl]-cyclohexanecarboxylic acid] gave an IC50 of 26 nM.
`CCc1cc(CN(C[C@H]2CC[C@H](C(=O)O)CC2)[C@H]2CCc3c2ccc(Cl)c3F)ccc1OCCN1C(=O)CCC1=O` [Example 149, trans-4-[(((S)-5-Chloro-4-fluoro-indan-1-yl)-{4-[2-(2,5-dioxo-pyrrolidin-1-yl)-ethoxy]-3-ethyl-benzyl}-amino)-methyl]-cyclohexanecarboxylic acid] gave an IC50 of 165 nM.
`COc1cc(CN([C@H]2C[C@@H](C(=O)O)C2)[C@H](C)c2ccc(Cl)c(F)c2)ccc1OCCN1C(=O)CCC1=O` [Example 150, cis-3-([(R)-1-(4-Chloro-3-fluoro-phenyl)-ethyl]-{4-[2-(2,5-dioxo-pyrrolidin-1-yl)-ethoxy]-3-methoxy-benzyl}-amino)-cyclobutanecarboxylic acid] gave an IC50 of 98 nM.
With `CCc1cc(CN([C@H]2C[C@@H](C(=O)O)C2)[C@H](C)c2ccc(Cl)c(F)c2)ccc1OCCN1C(=O)CCC1=O` [Example 151, cis-3-([(R)-1-(4-Chloro-3-fluoro-phenyl)-ethyl]-{4-[2-(2,5-dioxo-pyrrolidin-1-yl)-ethoxy]-3-ethyl-benzyl}-amino)-cyclobutanecarboxylic acid] the IC50 was 457 nM.
In the case of `COc1cc(CN([C@H]2C[C@@H](C(=O)O)C2)[C@H](C)c2ccc(Cl)c(Cl)c2)ccc1OCCN1C(=O)CCC1=O` [Example 152, cis-3-([(R)-1-(3,4-Dichloro-phenyl)-ethyl]-{4-[2-(2,5-dioxo-pyrrolidin-1-yl)-ethoxy]-3-methoxy-benzyl}-amino)-cyclobutanecarboxylic acid], the IC50 is reported as 149 nM.
`Cc1cc(CN([C@H]2C[C@@H](C(=O)O)C2)[C@H](C)c2ccc(Cl)cc2)ccc1OCCN1C(=O)CN(C)C1=O` [Example 153, cis-3-([(R)-1-(4-Chloro-phenyl)-ethyl]-{3-methyl-4-[2-(3-methyl-2,5-dioxo-imidazolidin-1-yl)-ethoxy]-benzyl}-amino)-cyclobutanecarboxylic acid] showed an IC50 of 294 nM.
Molecule `COc1cc(CN(C[C@H]2CC[C@H](C(=O)O)CC2)C(C)c2ccc(C(F)(F)F)cc2)ccc1OCCN1C(=O)CCC1=O` (stereo partly drawn) [Example 154, trans-4-({{4-[2-(2,5-Dioxo-pyrrolidin-1-yl)-ethoxy]-3-methoxy-benzyl}-[1-(4-trifluoromethyl-phenyl)-ethyl]-amino}-methyl)-cyclohexanecarboxylic acid] has an IC50 of 70 nM.
Molecule `COc1cc(CN(C[C@H]2CC[C@H](C(=O)O)CC2)[C@H]2CCc3cc(Cl)ccc32)ccc1OCCN1C(=O)[C@H]2CC=CC[C@H]2C1=O` [Example 155, trans-4-[(((S)-5-Chloro-indan-1-yl)-{4-[2-((3aS,7aR)-1,3-dioxo-1,3,3a,4,7,7a-hexahydro-isoindol-2-yl)-ethoxy]-3-methoxy-benzyl}-amino)-methyl]-cyclohexanecarboxylic acid; hydrochloride] has an IC50 of 2870 nM.
`COc1cc(CN(C[C@H]2CC[C@H](C(=O)O)CC2)[C@H]2CCc3cc(Cl)ccc32)ccc1OCCN1C(=O)c2ccccc2C1=O` [Example 156, trans-4-[(((S)-5-Chloro-indan-1-yl)-{4-[2-(1,3-dioxo-1,3-dihydro-isoindol-2-yl)-ethoxy]-3-methoxy-benzyl}-amino)-methyl]-cyclohexanecarboxylic acid; hydrochloride] showed an IC50 of 79 nM.
`Cc1cc(CN(C[C@H]2CC[C@H](C(=O)O)CC2)[C@H]2CCc3c2ccc(Cl)c3F)ccc1OCCN1C(=O)CN(C)C1=O` [Example 157, trans-4-[(((S)-5-Chloro-4-fluoro-indan-1-yl)-{3-methyl-4-[2-(3-methyl-2,5-dioxo-imidazolidin-1-yl)-ethoxy]-benzyl}-amino)-methyl]-cyclohexanecarboxylic acid] gave an IC50 of 71 nM.
With `COc1cc(CN(CC2CC(C(=O)O)C2)[C@H]2CCc3cc(Cl)ccc32)ccc1OCCN1C(=O)CCC1=O` (stereo partly drawn) [Example 158, 3-[(((S)-5-Chloro-indan-1-yl)-{4-[2-(2,5-dioxo-pyrrolidin-1-yl)-ethoxy]-3-methoxy-benzyl}-amino)-methyl]-cyclobutanecarboxylic acid] the IC50 was 1060 nM.
For `COc1cc(CN([C@H]2C[C@@H](C(=O)O)C2)[C@H](C)c2ccc3c(c2)CCC3)ccc1OCCn1c(=O)ccn(C)c1=O` [Example 159, cis-3-(((R)-1-Indan-5-yl-ethyl)-{3-methoxy-4-[2-(3-methyl-2,6-dioxo-3,6-dihydro-2H-pyrimidin-1-yl)-ethoxy]-benzyl}-amino)-cyclobutanecarboxylic acid], the IC50 was 544 nM.

Same assay, conditions: read-out: % at 10 μM; at 10 μM; displacement of 125I-CXCL10
Work on `COc1cc(CN([C@H]2C[C@H](C(=O)O)C2)[C@H](C)c2ccc3c(c2)CCC3)ccc1OCCn1c(=O)ccn(C)c1=O` [Example 160, trans-3-(((R)-1-Indan-5-yl-ethyl)-{3-methoxy-4-[2-(3-methyl-2,6-dioxo-3,6-dihydro-2H-pyrimidin-1-yl)-ethoxy]-benzyl}-amino)-cyclobutanecarboxylic acid] yielded an inhibition at 10 µM of 26%.

Reference: patent publication US9073853B2, “Cycloalkane carboxylic acid derivatives as CXCR3 receptor antagonists” (Sanofi, priority 2011, dated 2015)
